Experimental data taken from patent publication US9452994B2, “Manufacturing process for pyrimidine derivatives” (Novartis AG, priority 2010, dated 2016).

Assay: moisture uptake of solid forms at given relative humidity
Assay type: physicochemical

Molecule: 5-(2,6-Di-4-morpholinyl-4-pyrimidinyl)-4-trifluoromethylpyridin-2-amine hemihydrate
- moisture uptake (25% relative humidity): 1.9%

Molecule: Cl.Nc1cc(C(F)(F)F)c(-c2cc(N3CCOCC3)nc(N3CCOCC3)n2)cn1.O [5-(2,6-Di-4-morpholinyl-4-pyrimidinyl)-4-(trifluoromethyl)pyridin-2-amine monohydrate monohydrochloride]
- moisture uptake (75% relative humidity): 4.4%
- moisture uptake (95% relative humidity): 4.9%

Molecule: Cl.Nc1cc(C(F)(F)F)c(-c2cc(N3CCOCC3)nc(N3CCOCC3)n2)cn1 [5-(2,6-Di-4-morpholinyl-4-pyrimidinyl)-4-(trifluoromethyl)pyridin-2-amine monohydrochloride]
- hygroscopicity (in words): only slightly hydroscopic
- maximum moisture uptake (25° C., up to 92% relative humidity): less than 0.1%

Molecule: Nc1cc(C(F)(F)F)c(-c2cc(N3CCOCC3)nc(N3CCOCC3)n2)cn1 [5-(2,6-Di-4-morpholinyl-4-pyrimidinyl)-4-trifluoromethylpyridin-2-amine]
- moisture uptake (85% relative humidity): 8.9%
